By IC50 is commonly meant the point on the concentration scale where inhibition reaches its midpoint.

The values that follow come from ChEMBL document CHEMBL6096629, “Indolo[3,2-c]isoquinoline Hydroxamic Acid Derivatives as Novel Orally Topoisomerase-Histone Deacetylase Dual Inhibitors for NSCLC Therapy” (J Med Chem, 2025).

Assay [1] relates to Huh-7. The assay can be described thus: Antiproliferative activity against human Huh-7 cells incubated for 24 hrs by MTT assay. Particulars: Huh-7, 24 h. It counts as functional, cell-based. For orientation: Formazan colour is commonly taken as a measure of viable cells.
For assay [2], the system named is HCT-116. The assay can be described thus: cells. It is filed as functional, cell-based. The following applies: Homo sapiens, HCT-116, 24 h.
Description: Antiproliferative activity against human HCT-116 cells incubated for 24 hrs by MTT assay
Assay [3] has as its system MDA-MB-231. Kind of assay: cells. It is filed as functional, cell-based. The following applies: Homo sapiens, MDA-MB-231, 24 h.
For assay [4], the system named is MCF7. Kind of assay: cells. It counts as functional, cell-based. The following applies: Homo sapiens, MCF7, 24 h.
Description: Antiproliferative activity against human MCF7 cells incubated for 24 hrs by MTT assay
Assay [5] deals with PC-3. Kind of assay: Antiproliferative activity against human PC-3 cells incubated for 24 hrs by MTT assay. It is filed as functional, cell-based. The following applies: PC-3, 24 h.
The target in assay [6] is Histone deacetylase 1 (Homo sapiens, UniProt Q13547). Kind of assay: Inhibition of HDAC1 (unknown origin).
Chain of Histone deacetylase 1 (Q13547 whole entry): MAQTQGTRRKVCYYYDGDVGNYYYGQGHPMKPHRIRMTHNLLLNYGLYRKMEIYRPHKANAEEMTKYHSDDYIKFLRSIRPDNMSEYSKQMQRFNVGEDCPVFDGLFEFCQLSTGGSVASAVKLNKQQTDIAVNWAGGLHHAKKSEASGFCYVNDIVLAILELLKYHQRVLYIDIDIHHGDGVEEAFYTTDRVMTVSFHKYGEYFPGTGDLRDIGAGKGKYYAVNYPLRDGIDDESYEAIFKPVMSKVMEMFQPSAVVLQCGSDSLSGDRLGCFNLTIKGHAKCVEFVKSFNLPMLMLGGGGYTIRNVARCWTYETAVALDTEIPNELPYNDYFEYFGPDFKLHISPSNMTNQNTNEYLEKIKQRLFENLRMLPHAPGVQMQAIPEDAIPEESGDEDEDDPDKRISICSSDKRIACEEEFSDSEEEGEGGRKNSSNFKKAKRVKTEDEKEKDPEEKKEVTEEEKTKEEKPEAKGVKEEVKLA
Assay [7] has as its system NCI-H2228. The assay can be described thus: Antiproliferative activity against human NCI-H2228 cells incubated for 24 hrs by MTT assay. It counts as functional, cell-based. The following applies: NCI-H2228, 24 h.
Assay [8] has as its system HCT-116. The assay can be described thus: cells. The following applies: Homo sapiens, HCT-116, 24 h.
Description: Antiproliferative activity against human HCT-116 cells incubated for 24 hrs in presence of SAHA by MTT assay
Assay [9] has as its system MDA-MB-231. Kind of assay: cells. Particulars: Homo sapiens, MDA-MB-231, 24 h.
Description: Antiproliferative activity against human MDA-MB-231 cells incubated for 24 hrs in presence of SAHA by MTT assay
Assay [10] relates to MCF7. The assay can be described thus: cells. The following applies: Homo sapiens, MCF7, 24 h.
Description: Antiproliferative activity against human MCF7 cells incubated for 24 hrs in presence of SAHA by MTT assay
Assay [11] relates to NCI-H2228. The assay can be described thus: Antiproliferative activity against human NCI-H2228 cells incubated for 24 hrs in presence of SAHA by MTT assay. It counts as functional, cell-based. The following applies: NCI-H2228, 24 h.
In assay [12] the test system is PC-3. The assay can be described thus: Antiproliferative activity against human PC-3 cells incubated for 24 hrs in presence of SAHA by MTT assay. It is filed as functional, cell-based. Particulars: PC-3, 24 h.
Assay [13] deals with Huh-7. The assay can be described thus: Antiproliferative activity against human Huh-7 cells incubated for 24 hrs in presence of SAHA by MTT assay. Particulars: Huh-7, 24 h. It is filed as functional, cell-based.

A value given as a limit tells only on which side of the number the result lay.

With `CCCCNNC(=O)CCCCn1c2cc3c(cc2c2[nH]c(=O)c4ccccc4c21)OCO3`, the IC50 in assay [1] was determined as 6490 nM; in assay [2], 3520 nM; in [3], 4330 nM; in assay [4], 4110 nM; in assay [5], 3240 nM; in assay [6], 3320 nM. This compound also came in with an IC50 in assay [7] of 2170 nM.

On to `CCNNC(=O)CCCCn1c2cc3c(cc2c2[nH]c(=O)c4ccccc4c21)OCO3`, for which the IC50 in [1] is 7410 nM; in [2], 3190 nM; in assay [3], above 8000 nM; in assay [4], 4080 nM; in assay [5], 3560 nM; in assay [6], 1650 nM. This compound returned an IC50 in [7] of 2390 nM.

Consider `O=C(CCCCCCCn1c2cc3c(cc2c2ncc4ccccc4c21)OCO3)NO`, for which the half-inhibitory concentration (IC50) in [1] was 6590 nM; in assay [2], 2680 nM; in [3], 2220 nM; in [4], above 8000 nM; in assay [5] it was 2500 nM; in assay [6] it was below 2 nM. In assay [7], this compound showed an IC50 of 4600 nM.

As to `CCCNNC(=O)CCCCCCCn1c2cc3c(cc2c2[nH]c(=O)c4ccccc4c21)OCO3`, the half-maximal inhibitory concentration (IC50) in assay [1] is above 8000 nM; in assay [2], above 8000 nM; in assay [3], above 8000 nM; in assay [4], above 8000 nM; in [5], above 8000 nM; in assay [6], 1720 nM. This compound also registered a 50% inhibitory concentration (IC50) in assay [7] above 8000 nM.

For the compound `CCCNNC(=O)CCCCn1c2cc3c(cc2c2[nH]c(=O)c4ccccc4c21)OCO3`, the IC50 in assay [1] came to 2740 nM; in assay [2], 1310 nM; in [3], 2620 nM; in [4], 1270 nM; in [5], 930 nM; in assay [6] it was 640 nM. In assay [7], this compound returned an IC50 of 1170 nM.

With `CCCNNC(=O)CCCCCn1c2cc3c(cc2c2[nH]c(=O)c4ccccc4c21)OCO3`, the IC50 in assay [1] is above 8000 nM; in assay [2], 2880 nM; in assay [3], 5910 nM; in [4] it was above 8000 nM; in [5], 4600 nM; in assay [6], 500 nM. Further, in [7], the half-inhibitory concentration (IC50) is 2840 nM.

With `CCCNNC(=O)c1ccc(Cn2c3cc4c(cc3c3[nH]c(=O)c5ccccc5c32)OCO4)cc1`, the IC50 in assay [1] was determined as 6280 nM; in assay [2], 1500 nM; in assay [3], 4450 nM; in assay [4], 1970 nM; in assay [5], 1530 nM; in [6] it was 1090 nM. In [7], this compound displayed a half-maximal inhibitory concentration (IC50) of 2170 nM.

For the compound `CCCNNC(=O)CCCCCCn1c2cc3c(cc2c2ncc4ccccc4c21)OCO3`, the half-maximal inhibitory concentration (IC50) in assay [1] was above 8000 nM; in assay [2], above 8000 nM; in [3] it was above 8000 nM; in [4] it was above 8000 nM; in [5], above 8000 nM; in assay [6], 130 nM. The IC50 in assay [7] is above 8000 nM.

`COc1cc([C@@H]2c3cc4c(cc3[C@@H](O[C@@H]3O[C@@H]5CO[C@@H](C)O[C@H]5[C@H](O)[C@H]3O)[C@H]3COC(=O)[C@H]23)OCO4)cc(OC)c1O` [ETOPOSIDE]: the half-inhibitory concentration (IC50) was 950 nM in [8]; 1010 nM in [9]; 640 nM in assay [10]; 2870 nM in assay [3]; 840 nM in [11]; 650 nM in assay [12]. In addition, the IC50 in assay [13] was found to be 810 nM.
